According to patent US6444850B1, “Fungicidial compounds having a fluorovinyloxphyenyl moiety and process for the preparation thereof” (priority 1997, dated 2002):

Legend:
[1] = system: Puccinia recondita; test: Fungicidal activity against wheat leaf rust (WLR) disease; type: in vivo; conditions: for C. V. (%) WLR: 50 ppm, control value, wheat leaf rust; for C. V. (%), Fungicidal Activities against WLB at 10 ppm: Table 8 (Test Example 5)
[2] = system: Phytophthora infestans; type: in vivo; conditions: 50 ppm; control value, tomato late blight
[3] = system: Botrytis cinerae; test: Fungicidal activity against cucumber gray mold rot (CGM) disease; type: in vivo; conditions: 50 ppm, control value
Description: Botrytis cinerae, which was isolated from cucumber infected thereby, was inoculated on a PDA agar medium and cultured under a 12L/12D cycle at 25° C. for 15 days to form spore. The spores were scraped, filtered through a gauze and then suspended in potato dextrose liquid medium at a concentration of 1×10^6 spore/ml. The spore suspension was sprayed on a cucumber plant having one leaf. The cucumber plant was held in a humidified room at 20° C. for 3 days. L.A. on a leaf was measured to calculate an C.V.

[4] = system: Erysiphae graminis; test: Fungicidal activity against barley powdery mildew (BPM) disease; type: in vivo; conditions: for C. V. (%) BPM: 50 ppm, control value, barley powdery mildew; for C. V. (%), Fungicidal activities against TLB at 10 ppm: Table 9 (Test Example 6)
Description: Erysiphae graminis was subcultured on a wheat plant in a laboratory. 15 g of barley seeds was sowed in a pot (diameter 6.5 cm) and cultured in a greenhouse for 7 days to obtain a barley plant having only a primary leaf. The barley plant was inoculated with spores by shaking thereover another plant infected by BPM. The inoculated barley plant was cultured in an incubator maintained at a temperature of 22 to 24° C. and a relative humidity of 50% for 7 days to induce BPM. L.A. on the leaf was measured to calculate an C.V.

[5] = system: Rhizoctonia solani AG-1; test: Fungicidal activity against rice sheath blight (RSB) disease; conditions: 50 ppm, control value
[6] = system: Pyricularia oryzae Carvara KA301; type: in vivo; conditions: for C. V. (%) RCB: 50 ppm, control value, rice blast; for C. V. (%) Fungicidal Activities against RCB at 10 ppm / C. V. (%) Fungicidal Activities against RCB at 10 ppm (TABLE 6): sprayed on Nakdong rice plant, control value from lesion area

Compound	C. V. (%) WLR [1] [%]	C. V. (%) TLB [2] [%]	C. V. (%) CGM [3] [%]	C. V. (%) BPM [4] [%]	C. V. (%) RSB [5] [%]	C. V. (%) RCB [6] [%]	C. V. (%), Fungicidal activities against TLB at 10 ppm [4] [%]	C. V. (%), Fungicidal Activities against WLB at 10 ppm [1] [%]	C. V. (%) Fungicidal Activities against RCB at 10 ppm [6] [%]	C. V. (%) Fungicidal Activities against RCB at 10 ppm (TABLE 6) [6] [%]
CNC(=O)C(=COC)c1ccccc1COc1cccc(OC(F)=Cc2cccc(OC)c2)c1 [Compound 26]	70	55	0	88	35	20				
CON=C(C(=O)OC)c1ccccc1COc1cccc(OC(F)=Cc2cccc(OC)c2)c1 [Compound 27]	86	80	0	96	90	100	97			
COC(=O)C(=CSC)c1ccccc1COc1cccc(OC(F)=Cc2cccc(OC)c2)c1 [Compound 28]	91	73	21	97	70	93				
COC=C(C(=O)OC)c1ccccc1COc1cccc(OC(F)=Cc2ccc(OC)cc2)c1 [Compound 29]	100	56	28	99	90	93	90	99	92	92
CNC(=O)C(=COC)c1ccccc1COc1cccc(OC(F)=Cc2ccc(OC)cc2)c1 [Compound 30]	0	6	28	16	5	93				
CON=C(C(=O)OC)c1ccccc1COc1cccc(OC(F)=Cc2ccc(OC)cc2)c1 [Compound 31]	93	84	0	50	30	93				
COC=C(C(=O)OC)c1ccccc1COc1cccc(OC(F)=Cc2ccc(Oc3ccccc3)cc2)c1 [Compound 32]	88	24	20	90	30	30				
CON=C(C(=O)OC)c1ccccc1COc1cccc(OC(F)=Cc2ccc(Oc3ccccc3)cc2)c1 [Compound 33]	83	10	20	94	5	20				
COC=C(C(=O)OC)c1ccccc1COc1cccc(OC(F)=Cc2cccc(F)c2)c1 [Compound 34]	98	75	0	100	95	99	100	100	100	100
CNC(=O)C(=COC)c1ccccc1COc1cccc(OC(F)=Cc2cccc(F)c2)c1 [Compound 35]	40	35	35	58	30	15				
COC=C(C(=O)OC)c1ccccc1COc1cccc(OC(F)=Cc2ccc(F)cc2)c1 [Compound 36]	100	66	0	99	95	100	100	100	94	94
COC=C(C(=O)OC)c1ccccc1COc1cccc(OC(F)=Cc2ccc(Cl)cc2)c1 [Compound 37]	98	93	58	98	45	95	100	97	100	100
CNC(=O)C(=COC)c1ccccc1COc1cccc(OC(F)=Cc2ccc(Cl)cc2)c1 [Compound 38]	0	33	15	8	5	33				
CON=C(C(=O)OC)c1ccccc1COc1cccc(OC(F)=Cc2ccc(Cl)cc2)c1 [Compound 39]	86	80	15	96	90	100	95			
COC(=O)C(=CSC)c1ccccc1COc1cccc(OC(F)=Cc2ccc(Cl)cc2)c1 [Compound 40]	83	33	9	93	70	73				
CO/C=C(/C(=O)OC)c1ccccc1COc1cccc(OC(F)=C(c2ccccc2)C(F)(F)F)c1 [Compound 45, methyl (2E)-3-methoxy-2-{2′-{3′-(2′″-fluoro-1′″-trifluoromethylstyryl)-2′″-oxy}phenoxymethyl}phenyl-2-propenoate]	100	0	0	100	94	90	100	100	90	90
CNC(=O)/C(=C/OC)c1ccccc1COc1cccc(OC(F)=C(c2ccccc2)C(F)(F)F)c1 [Compound 46, (2E)-N-methyl-3-methoxy-2-{2′-{3″-(2′″-fluoro-1′″-trifluoromethylstyryl)-2′″-oxy}phenoxymethyl}phenyl-2-propenoamide]	53	11	27	0	20	0				
CON=C(C(=O)OC)c1ccccc1COc1cccc(OC(F)=C(c2ccccc2)C(F)(F)F)c1 [Compound 47]	86	64	26	98	90	96	98			
CNC(=O)C(=NOC)c1ccccc1COc1cccc(OC(F)=C(c2ccccc2)C(F)(F)F)c1 [Compound 48]	100	70	28	98	45	97	100	100	100	100
COC=C(C(=O)OC)c1ccccc1COc1cccc(OC(F)=C(c2cccc(C)c2)C(F)(F)F)c1 [Compound 49]	100	0	41	100	50	95	100	95		
CNC(=O)C(=COC)c1ccccc1COc1cccc(OC(F)=C(c2cccc(C)c2)C(F)(F)F)c1 [Compound 50]	0	33	5	0	25	0				
CON=C(C(=O)OC)c1ccccc1COc1cccc(OC(F)=C(c2cccc(C)c2)C(F)(F)F)c1 [Compound 51]	100	3	0	100	60	41	98	90		
CNC(=O)C(=NOC)c1ccccc1COc1cccc(OC(F)=C(c2cccc(C)c2)C(F)(F)F)c1 [Compound 52]	100	55	28	100	90	95	100	100	95	95
